Assay results reported in the supplement of paper PMC11451515.

Tested on: NOMO1
Assay: cell viability relative to DMSO control; higher = less cytotoxic
Details: 48 h
Outline: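 Leukemia cells (NOMO1 or SEM, 500 cells/well; P12-Ichikawa, 1000 cells/well) were seeded in 5 μl in 1536-well plates after at least four passages of adaptation to each medium. They received library compounds in DMSO by pin dosing, 11 threefold points from 47 μM to 0.79 nM. Luminescence with CellTiter-Glo One was read after 48 h at 37°C. Viability is stated per plate relative to DMSO wells, with cell-free wells as background.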

[1] = HPLM + 10% dialyzed FBS, 0.000781 µM
[2] = HPLM + 10% dialyzed FBS, 0.00234 µM
[3] = HPLM + 10% dialyzed FBS, 0.00702 µM
[4] = HPLM + 10% dialyzed FBS, 0.0211 µM
[5] = HPLM + 10% dialyzed FBS, 0.0632 µM
[6] = HPLM + 10% dialyzed FBS, 0.19 µM
[7] = HPLM + 10% dialyzed FBS, 0.569 µM
[8] = HPLM + 10% dialyzed FBS, 1.71 µM
[9] = HPLM + 10% dialyzed FBS, 5.12 µM
[10] = HPLM + 10% dialyzed FBS, 15.4 µM
[11] = HPLM + 10% dialyzed FBS, 46.1 µM
[12] = RPMI 5 mM glucose + 10% FBS, 0.000781 µM
[13] = RPMI 5 mM glucose + 10% FBS, 0.00234 µM
[14] = RPMI 5 mM glucose + 10% FBS, 0.00702 µM
[15] = RPMI 5 mM glucose + 10% FBS, 0.0211 µM
[16] = RPMI 5 mM glucose + 10% FBS, 0.0632 µM
[17] = RPMI 5 mM glucose + 10% FBS, 0.19 µM
[18] = RPMI 5 mM glucose + 10% FBS, 0.569 µM
[19] = RPMI 5 mM glucose + 10% FBS, 1.71 µM
[20] = RPMI 5 mM glucose + 10% FBS, 5.12 µM
[21] = RPMI 5 mM glucose + 10% FBS, 15.4 µM
[22] = RPMI 5 mM glucose + 10% FBS, 46.1 µM
[23] = RPMI 5 mM glucose + 10% dialyzed FBS, 0.000781 µM
[24] = RPMI 5 mM glucose + 10% dialyzed FBS, 0.00234 µM
[25] = RPMI 5 mM glucose + 10% dialyzed FBS, 0.00702 µM
[26] = RPMI 5 mM glucose + 10% dialyzed FBS, 0.0211 µM
[27] = RPMI 5 mM glucose + 10% dialyzed FBS, 0.0632 µM
[28] = RPMI 5 mM glucose + 10% dialyzed FBS, 0.19 µM
[29] = RPMI 5 mM glucose + 10% dialyzed FBS, 0.569 µM
[30] = RPMI 5 mM glucose + 10% dialyzed FBS, 1.71 µM
[31] = RPMI 5 mM glucose + 10% dialyzed FBS, 5.12 µM
[32] = RPMI 5 mM glucose + 10% dialyzed FBS, 15.4 µM
[33] = RPMI 5 mM glucose + 10% dialyzed FBS, 46.1 µM

Row | Structure (SMILES) | cell viability [1] [%] | cell viability [2] [%] | cell viability [3] [%] | cell viability [4] [%] | cell viability [5] [%] | cell viability [6] [%] | cell viability [7] [%] | cell viability [8] [%] | cell viability [9] [%] | cell viability [10] [%] | cell viability [11] [%] | cell viability [12] [%] | cell viability [13] [%] | cell viability [14] [%] | cell viability [15] [%] | cell viability [16] [%] | cell viability [17] [%] | cell viability [18] [%] | cell viability [19] [%] | cell viability [20] [%] | cell viability [21] [%] | cell viability [22] [%] | cell viability [23] [%] | cell viability [24] [%] | cell viability [25] [%] | cell viability [26] [%] | cell viability [27] [%] | cell viability [28] [%] | cell viability [29] [%] | cell viability [30] [%] | cell viability [31] [%] | cell viability [32] [%] | cell viability [33] [%]
1 | CC1=CC2=C(O1)C(=C3OC(=O)\C=C(C)/C3=C2)C | 79.8 | 98.7 | 90.9 | 114 | 104 | 123 | 125 | 121 | 95.2 | 124 | 116 | 114 | 102 | 112 | 115 | 125 | 108 | 114 | 102 | 113 | 106 | 106 | 91.2 | 92.2 | 99.8 | 102 | 107 | 98 | 112 | 105 | 114 | 102 | 114
2 | OC1=C(C=CC=C1)C2=CC=C(C=C2)C3=CSC4=C3C(=C(/C#N)C(=O)N4)/O | 119 | 119 | 120 | 102 | 112 | 110 | 119 | 118 | 126 | 105 | 102 |  |  |  |  |  |  |  |  |  |  |  | 117 | 123 | 131 | 139 | 122 | 112 | 122 | 119 | 114 | 123 | 109
3 | COc1cc2c(NC3CCN(C(C)C)CC3)nc(C3CCCCC3)nc2cc1OCCCN1CCCC1 | 120 | 133 | 123 | 118 | 142 | 128 | 118 | 130 | 111 | 102 | 9.5 | 107 | 117 | 114 | 129 | 117 | 130 | 134 | 114 | 118 | 115 | 18.2 |  |  |  |  |  |  |  |  |  |  | 
4 | Cn1cc(-c2ccncc2)c(-c2ccc(OCc3ccc4ccccc4n3)cc2)n1 |  |  |  |  |  |  |  |  |  |  |  |  |  |  |  |  |  |  |  |  |  |  | 102 | 123 | 133 | 125 | 114 | 117 | 131 | 123 | 109 | 111 | 98.4
5 | COc1cc(/C=C/C(=O)CC(=O)/C=C/c2ccc(O)c(OC)c2)ccc1O | 105 | 105 | 118 | 111 | 112 | 123 | 114 | 115 | 99.8 | 42.3 | 5.01 | 97.4 | 93.6 | 103 | 108 | 106 | 105 | 102 | 115 | 102 | 73.2 | 7.35 | 105 | 105 | 106 | 106 | 118 | 112 | 104 | 104 | 101 | 79.9 | 10.1
6 | CCC(CC)[C@H](NC(C)=O)[C@@H]1[C@H](O)[C@@H](C(=O)O)C[C@H]1NC(=N)N | 67.7 | 72 | 78 | 85 | 80.9 | 96.4 | 90.3 | 90.8 | 87.7 | 82.8 | 94.9 | 81.8 | 85 | 88.7 | 85.8 | 89 | 84.3 | 90 | 87.1 | 84.1 | 79.5 | 81.1 | 80.4 | 79.7 | 82.6 | 80.4 | 93 | 83 | 90.2 | 81.7 | 78.2 | 78.3 | 83.1
7 | CC1(C)CC(=O)c2c(C(F)(F)F)nn(-c3ccc(C(N)=O)c(NC4CCC(OC(=O)CN)CC4)c3)c2C1 (stereo unspecified) | 94.8 | 92.8 | 104 | 99 | 102 | 84.5 | 27.3 | 17.8 | 13.5 | 17.5 | 15.7 | 92.5 | 110 | 92.4 | 92.9 | 84.2 | 88.9 | 20.6 | 11.2 | 9.75 | 9.88 | 11.1 | 94.4 | 103 | 109 | 93.2 | 89.2 | 76 | 21.3 | 15.8 | 13.4 | 14.1 | 15.9
8 | CN(C)[C@H]\1[C@@H]2[C@@H](O)[C@@H]\3C(=C)C4=C(C(=CC=C4)O)C(=O)C3=C(\O)[C@@]2(O)C(=O)\C(=C1O)C(N)=O | 130 | 120 | 122 | 128 | 135 | 110 | 111 | 127 | 103 | 107 | 121 |  |  |  |  |  |  |  |  |  |  |  | 127 | 119 | 121 | 121 | 116 | 112 | 121 | 125 | 111 | 124 | 123
9 | COC(=O)N[C@H](C(=O)N[C@@H](Cc1ccccc1)[C@@H](O)CN(Cc1ccc(-c2ccccn2)cc1)NC(=O)[C@@H](NC(=O)OC)C(C)(C)C)C(C)(C)C |  |  |  |  |  |  |  |  |  |  |  | 101 | 105 | 113 | 100 | 106 | 103 | 114 | 110 | 111 | 97.8 | 93.4 | 112 | 102 | 114 | 116 | 113 | 103 | 97.3 | 101 | 110 | 101 | 94.9
